The data set concerns MCF-10A. Briefly: Cytotoxicity against human MCF-10A cells assessed as reduction in cell viability at 0.5 uM incubated for 7 days by high contrast bright field microscopic analysis. It counts as toxicity, cell-based. The settings on record: 168 h, time 7 day.

Take `CNCCN1CCC(c2cc(CN(C)C(=O)c3cccc(Oc4ccc(OCC(=O)N5CCC(CN6CCC(CN7CCN(CC(=O)N[C@H](C(=O)N8C[C@H](O)C[C@H]8C(=O)N[C@@H](C)c8ccc(-c9scnc9C)cc8)C(C)(C)C)CC7)CC6)CC5)cc4)c3)ccn2)CC1`: the Activity entry is “Non-Toxic”.

For the origin of these results see ChEMBL document CHEMBL5365479, “Development of Potent and Selective Coactivator-Associated Arginine Methyltransferase 1 (CARM1) Degraders” (J Med Chem, 2023).
